This is an account of results in patent publication US20130131033A1, “PHARMACEUTICAL COMPOSITION FOR TREATMENT OF RESPIRATORY TRACT INFECTIONS” (priority 2010, published 2013).

Common to all, as to type: cell-based
For test [1], the system named is Streptococcus pneumoniae (MTCC 2672). Kind of test: Broth macrodilution method (MIC). The conditions noted are these: MTCC2672, individual drug alone, read-out: MIC (μg/ml) against Streptococcus pneumoniae. The protocol:
(§1) […] LABS PVT. LTD. at its pre-clinical facility based at Chennai by Study No.: AMOX-538-09. The study report was generated on 1Mar. 2010. The study was conducted as per the approved study protocol.
(§2) The test substances used were three formulations, Formulation I, Formulation II and Formulation III prepared in accordance with Example 1, Example 2 and Example 3 respectively. […] The preparations and the method of the study were as per the approved protocol.

The test system of test [2] is Streptococcus pyogenes (MTCC 442). Kind of test: Broth macrodilution method (MIC). The conditions noted are these: MTCC442, individual drug alone, read-out: MIC (μg/ml) against Streptococcus pyogenes. Here is the method:
as §1, §2

Test [3] relates to Streptococcus pneumoniae (MTCC 2672). The experiment in a line: Disc diffusion method (zone of inhibition). Here is the method:
as §1, §2
(§3) The sensitivity of the test substances and the reference standards were interpreted as per the CLSI zone diameter interpretive standards shown in Table 3.
A general note: Agar diffusion results depend on both activity and mobility in agar.

In test [4] the test system is Streptococcus pyogenes (MTCC 442). Kind of test: Disc diffusion method (zone of inhibition). Here is the method:
as §1, §2, §3

≈ marks a conversion by molar mass, not a printed value.

Take `CC1(C)S[C@@H]2[C@H](NC(=O)[C@H](N)c3ccc(O)cc3)C(=O)N2[C@H]1C(=O)O` [Amoxycillin]: the MIC was found to be 0.063 µg/mL (≈ 0.172 µM) in test [1] and 0.031 µg/mL (≈ 0.0848 µM) in test [2]. For the same molecule, the “Zone Diameter Range (mm) S. pneumoniae” value in test [3] (8 μg/disc) is listed as 33-36 mm; in test [3] (16 μg/disc) it was 34-36 mm; in test [3] (32 μg/disc) it was 37-38 mm. Also, the results for the “Zone Diameter Range (mm) S. pyogenes” value in test [4] (8 μg/disc), in test [4] (16 μg/disc) and in test [4] (32 μg/disc) were 32-33 mm, 34-36 mm and 37-39 mm, respectively.
